Columns and labels:
[1] = tested on: Panc-1 scr, Panc-1 p53-R273H knock-out (KO) cell lines; test: XTT cell proliferation assay, Panc-1 cell lines; type: cell-based, human; settings: 72 h, 1-50 μM
Protocol: Human PDAC (AsPC-1, BxPC-3, Panc-1 scr, Panc-1 p53-R273H knock-out (KO) hTERT-HPNE), breast (MCF-7), lung (A549), and colon (HT-29) cancer cell lines were purchased from the American Type Culture Collection (ATCC). The MCF-7, A549, Panc-1 scr, Panc-1 p53 KO and HT-29 cell lines were grown in Dulbecco's Modified Eagle Medium (DMEM; Biological Industries, Beit HaEmek (BI), Israel), and the BxPC-3 and AsPC-1 cell lines were cultured in Roswell Park Memorial Institute-1640 (RPMI-1640; BI, Israel) medium. All media was supplemented with 10% fetal bovine serum (FBS), 200 μM L-glutamine (BI), and 1% penicillin-streptomycin (BI). Cells were cultured at 37° C. in a 5% CO2 humidified incubator.
The XTT Cell Proliferation Assay Kit was used to determine cell viability and proliferation. Cells were seeded in 96-well plates at a density of 4,000 cells per well and allowed to attach overnight in a 5% CO2 incubator at 37° C. After overnight incubation, cells were treated with culture medium or in a medium containing tigecycline, omadacycline, or eravacycline at different concentrations (1, 2, 5, 10, 25, and 50 μM) for the indicated time period. […] After shaking the plate gently to distribute the dye in the wells, the absorbance was measured with a spectrophotometer (Bio-RadiMark Microplate Absorbance reader) at a wavelength of 450 nm and a reference wavelength of 655 nm. […]

BxPC-3 cells = test: Scratch wound healing (cell migration) assay; type: cell-based, human; settings: BxPC-3, 10 μM, 0, 24, 48 and 72 hours
Protocol: BxPC-3 cells were cultured in six well plates to full confluence; then the monolayer of the cells was scratched using a 200 μl pipette tip. Subsequently, PBS was used to wash and remove floating and damaged cells, and medium alone or medium containing 10 μM eravacycline was added to the cells for further culture. Cell migration over the denuded area was observed and captured at the indicated times with a Nikon ECLIPSE Ts2 fluorescence microscope, equipped with DS-Fi3 camera. The wound closure rates were also measured at the indicated time points.
As one of the most malignant types of digestive tract cancer cells, PDAC cells have powerful migration and invasiveness capabilities. Therefore, the effect of eravacycline on cell migration abilities was investigated.

CN(C)[C@@H]1C(O)=C(C(N)=O)C(=O)[C@@]2(O)C(O)=C3C(=O)c4c(O)c(NC(=O)CN5CCCC5)cc(F)c4C[C@H]3C[C@@H]12 [eravacycline, (4S,4aS,5aR,12aS)-4-(Dimethylamino)-7-fluoro-3,10,12,12a-tetrahydroxy-1,11-dioxo-9-[2-(pyrrolidin-1-yl)acetamido]-1,4,4a,5,5a,6,11,12a-octahydrotetracene-2-carboxamide]
effect on cell viability (in words) [1]: No significant effect
effect on cell viability (in words) ([1]; listed as Eravacycline): no toxicity was observed
migration rate to wound vs control (BxPC-3 cells): significantly lower migration rate
